Measured values reported in patent publication US20250282828A1, “PEPTIDES FOR THE TREATMENT OF RESPIRATORY INFECTIONS OF VIRAL ORIGIN” (CENTRO DE INGENIERÍA GENÉTICA Y BIOTECNOLOGÍA, priority 2020, published 2025).
No end group written: not given here.

How the values were obtained:
[1] = test system: SARS-CoV-2; test: Treatment of patients infected by SARS-CoV-2 (RT-qPCR of nasopharyngeal swabs); type: in vivo, human; settings: for SARS-CoV-2 negative patients/Total: chloroquine
Protocol: Human studies were conducted in accordance with the Declaration of Helsinki. […] The peptide was administered subcutaneously. The presence of SARS-CoV-2 viral RNA was determined by RT-qPCR (Roche) in nasopharyngeal swabs of the patients every 48 or 96 hours during 15 days. Four groups were formed, each with 20 patients, all in the initial stage of the disease and with similar characteristics. Group 1 patients received the most frequently used treatment in COVID-19 therapy based on Kaletra (Lopinavir/Ritonavir), chloroquine, and Heberon™ Alpha R (IFN α2b). Group 2 received this treatment, plus the peptide identified in the Sequence Listing as SEQ ID NO: 1. The latter was administered subcutaneously, at 2 mg/Kg of weight for 5 days. Group 3 patients received treatment based on Kaletra, chloroquine and a combined formulation of intramuscular IFN a2b (3.0 million international units, MIU) and IFN y (0.5 MIU). Patients in group 4 received the same treatment as Group 3, plus the peptide identified in the Sequence Listing as SEQ ID NO: 1 (2 mg/Kg of weight), subcutaneously for 5 days.

[2] = in vitro; settings: pig, PK15 cells
[3] = test system: CSF virus Margarita strain; settings: 72 h
[4] = test system: vimentin intermediate filaments; test: Immunodetection of vimentin intermediate filaments in VeroE6 cells; type: cell-based, African green monkey; settings: 100 μM, 24 hours
Protocol: They were then fixed and permeabilized in a solution of acetone:methanol (1:1 V/V) for 10 min at −20° C. and blocked with 1% bovine serum albumin in phosphate buffered saline for 30 min, at 37° C. Vimentin intermediate filaments were detected using a murine anti-vimentin IgG1 monoclonal antibody (4.5 μg/mL) followed by an anti-mouse antibody conjugated to fluorescein isothiocyanate (1/200). Vimentin intermediate filaments (FI) were observed distributed throughout the cytoplasm, from the perinuclear region towards one or both poles of the cell.

[5] = test system: herpes simplex virus type 1 (HSV-1); test: HSV-1 replication in primary explants of human nasal mucosa (qPCR); type: cell-based; settings: 100 μM, 36 hours
Protocol: The replication of herpes simplex virus type 1 (HSV-1) was performed in primary explants of human nasal mucosa, according to Glorieux et al. (Glorieux et al. 2011, PLoS ONE, 6(7): e22160, doi: 10.1371/journal.pone.0022160). […] Afterwards, the cultures were washed and kept at 37° C. and 5% CO2 for 36 hours, in presence of the peptides in culture medium. The cultures were harvested, and HSV-1 was quantified by qPCR. The percentages of viral inhibition ranged from 70 to 92% in presence of the peptides (Table 5).

[6] = test system: Mebus strain of bovine coronavirus; test: Inhibition of bovine coronavirus replication in MDBK cells (CPE, viral RNA RT-qPCR); type: cell-based; settings: MOI 0.01, 120 hours
Protocol: To evaluate the antiviral effect of this peptide, bovine kidney cells known as MDBK were seeded in 24-well plates, at 280,000 cells per well, in DMEM culture medium with 10% fetal calf serum (FBS). The plates were incubated in a humid environment at 37° C. and 5% CO2. […] Once this treatment time elapsed, the culture medium was removed and the cells were infected with the Mebus strain of bovine coronavirus for 1 hour, in 200 μL of serum-free DMEM medium, at a multiplicity of infection (MOI) of 0.01 in a humid environment at 37° C. and 5% CO2. Subsequently, the volume of each well was brought up to 1 mL with serum-free DMEM medium in the presence of the peptide. Incubation for 120 hours was carried out, and cell-culture viability was evaluated by the method of metabolic reduction of MTT. To do this, the culture medium was removed. Two-hundred microliters of MTT were added to each well, and the plate was incubated for 2 to 4 hours at 37° C., 5% CO2 and 95% humidity. Subsequently, 300 μL of isobutyl alcohol were added and the plate was shaken for 1 hour. As an alternative to the MTT method, cells were stained with crystal violet (0.1%). Finally, the absorbance in each well was determined at 570 nm in a plate reader (Amersham). The antiviral effect was expressed as percent of inhibition of the cytopathic effect (CPE) (FIG. 1A) and inhibition of viral RNA (FIG. 1B) by RT-qPCR.

[7] = test system: Influenza A H1N1; type: cell-based; settings: 50 μM; tracheo-bronchial HAE
[8] = test system: AdV 7 Gomen strain; test: Adenovirus type 7 replication in bronchial HAE (qPCR); type: cell-based; settings: 50 μM, 24 hours
[9] = test system: Parainfluenza virus type 3 (HPIV3); type: cell-based; settings: 50 μM; HAE, 3 days
[10] = target: T1, Dengue 2 virus capsid protein (Dengue virus type 2, UniProt P29990); test: BIACORE surface plasmon resonance interaction with immobilized peptide; type: binding
T1 construct: with the Dengue 2 virus capsid protein
T1 sequence (P29990 1-100 limits assumed): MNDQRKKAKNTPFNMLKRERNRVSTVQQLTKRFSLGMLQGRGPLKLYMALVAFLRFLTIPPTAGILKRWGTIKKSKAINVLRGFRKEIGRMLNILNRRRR

[11] = test system: SARS-CoV-2; test: Prophylaxis in healthy contacts of COVID-19 patients (RT-qPCR of nasopharyngeal swabs); type: in vivo, human; settings: Group II, intranasal drops 14 μg/mL daily for 6 days
Protocol: Healthy individuals, contacts of COVID-19 patients, were included in this study. Two groups of 25 healthy individuals exposed to a similar risk of contagion (Group I and Group II) were analyzed. Group II was treated daily, for 6 days, with the peptide identified in the Sequence Listing as SEQ ID NO: 1 as intranasal drops, at a concentration of 14 μg/mL. Nasopharyngeal swab samples were collected for SARS-CoV-2 detection by RT-qPCR (Roche). Sampling was carried out at the beginning of the study and 7 days after it began.

[12] = target: p24 (HIV) (Human immunodeficiency virus type 1 group M subtype B, UniProt P04591); test: BIACORE surface plasmon resonance interaction with immobilized peptide; type: binding, HIV-1

RVTQMNLNDRLASLYDKV [SEQ ID NO: 1]
SARS-CoV-2 negative patients/Total ([1]; day 2, Groups 3/4: Kaletra, IFN a2b + IFN y without/with peptide 2 mg/Kg s.c. 5 days): 0/20
SARS-CoV-2 negative patients/Total ([1]; day 2 after treatment onset, Groups 1/2: Kaletra, Heberon Alpha R without/with peptide 2 mg/Kg s.c. 5 days): 0/20
SARS-CoV-2 negative patients/Total ([1]; day 4, Groups 1/2: Kaletra, Heberon Alpha R without/with peptide 2 mg/Kg s.c. 5 days): 16/20
SARS-CoV-2 negative patients/Total ([1]; day 4, Groups 3/4: Kaletra, IFN a2b + IFN y without/with peptide 2 mg/Kg s.c. 5 days): 17/20
SARS-CoV-2 negative patients/Total ([1]; day 6, Groups 1/2: Kaletra, Heberon Alpha R without/with peptide 2 mg/Kg s.c. 5 days): 20/20
SARS-CoV-2 negative patients/Total ([1]; day 6, Groups 3/4: Kaletra, IFN a2b + IFN y without/with peptide 2 mg/Kg s.c. 5 days): 20/20
SARS-CoV-2 negative patients/Total ([1]; day 10, Groups 1/2: Kaletra, Heberon Alpha R without/with peptide 2 mg/Kg s.c. 5 days): 20/20
SARS-CoV-2 negative patients/Total ([1]; day 10, Groups 3/4: Kaletra, IFN a2b + IFN y without/with peptide 2 mg/Kg s.c. 5 days): 20/20
SARS-CoV-2 negative patients/Total ([1]; day 14, Groups 1/2: Kaletra, Heberon Alpha R without/with peptide 2 mg/Kg s.c. 5 days): 20/20
SARS-CoV-2 negative patients/Total ([1]; day 14, Groups 3/4: Kaletra, IFN a2b + IFN y without/with peptide 2 mg/Kg s.c. 5 days): 20/20
SARS-CoV-2 negative patients/Total ([1]; day 20, Groups 1/2: Kaletra, Heberon Alpha R without/with peptide 2 mg/Kg s.c. 5 days): 20/20
SARS-CoV-2 negative patients/Total ([1]; day 20, Groups 3/4: Kaletra, IFN a2b + IFN y without/with peptide 2 mg/Kg s.c. 5 days): 20/20
patients negative for SARS-CoV-2 ([1]; fourth day after treatment onset, Group 2 (peptide + Kaletra, chloroquine, Heberon Alpha R)): 80%
patients negative for SARS-CoV-2 ([1]; fourth day after treatment onset, Group 4 (peptide + Kaletra, chloroquine, IFN a2b + IFN y)): 85%
patients negative for SARS-CoV-2 ([1]; sixth day after treatment onset, Group 2): 100%
patients negative for SARS-CoV-2 ([1]; sixth day after treatment onset, Group 4): 100%
CC50 at 96 h [2]: > 400000 nM
IC50 [3]: 300 nM
damage to cell integrity after treatment [4]: no damage to cell integrity was observed
Herpes simplex HSV-1 Inhib. % [5]: 92%
antiviral effect on bovine coronavirus infection (inhibition of CPE, viral RNA) [6]: exerts an antiviral effect
Influenza A H1N1 Inhib. % [7]: 86%
Adenovirus Ad7 Inhib. % [8]: 68%
Parainfluenza Type 3 Inhib. % [9]: 79%
Kd [10]: 1.67 nM
Rmax [10]: 409 RU
interaction [10]: concentration dependent interaction
kd [10]: 0.000413 s⁻¹
kon ([10]; read-out: ka): 247000 M⁻¹ s⁻¹
SARS-CoV-2 positive cases (%) ([11]; Day 7): 3.9%
SARS-CoV-2 positive cases/Total ([11]; Day 7): 1/25
SARS-CoV-2 positive cases (%) ([11]; Day of onset): 0%
SARS-CoV-2 positive cases/Total ([11]; Day of onset): 0/25
interaction [12]: absence of interaction
